Structures can show the parent of a compound that is named as a salt. Where two headings read alike, the source gives them in different places.
Experiments:
BxPC-3 spheroids = test: 3D spheroid cytotoxicity, acid phosphatase (APH) assay, BxPC-3; format: cell-based; settings: Homo sapiens, 72 h, acid phosphatase (APH) test, read-out: IC50 (µM) ± S.D. BxPC-3 (3D spheroids)
[1] = system: BxPC-3 cells (KRAS-wild-type PDAC); test: 2D cytotoxicity, MTT assay, BxPC-3; format: cell-based; settings: Homo sapiens, read-out: IC50 (µM) ± S.D. BxPC-3 (2D)
Description: (§1) All newly developed 1,2,4-amino-triazine compounds were screened for their cytotoxic activity against two human PDAC cell lines, namely, a KRAS-wild-type PDAC cell line (BxPC-3 cells) and a KRAS-mutant PDAC cell line (PSN-1 cells). […] The cytotoxicity parameters, expressed in terms of IC50 and obtained after 72 h of drug exposure by MTT assay, are reported in Table 3.
(§2) All tested compounds were dissolved in DMSO just before the experiment, and a calculated amount of drug solution was added to the cell growth medium to a final solvent concentration of 0.5%, which had no detectable effects on cell viability.
(§3) Human pancreatic PSN-1 and BxPC-3 carcinoma cell lines were obtained by American Type Culture Collection (ATCC, Rockville, MD, USA). Cell lines were maintained in the logarithmic phase at 37 °C in a 5% carbon dioxide atmosphere using RPMI-1640 medium (EuroClone) containing 10% fetal calf serum (EuroClone, Milan, Italy), antibiotics (50 units/mL penicillin and 50 μg/mL streptomycin) and 2 mM l-glutamine.
(§4) The growth inhibitory effect on tumor cells was evaluated by means of MTT assay. Briefly, 5 × 10^3 cells/well were seeded in 96-well microplates in a growth medium (100 μL). After 24 h, the medium was removed and replaced with a fresh one containing the compound to be studied at the appropriate concentration. Triplicate cultures were established for each treatment. After 72 h, each well was treated with 10 μL of a 5 mg/mL MTT saline solution, and following 5 h of incubation, 100 μL of a sodium dodecyl sulfate (SDS) solution in HCl 0.01 M was added. After overnight incubation, cell growth inhibition was detected by measuring the absorbance of each well at 570 nm using a Bio-Rad 680 microplate reader. The mean absorbance for each drug dose was expressed as a percentage of the control untreated well absorbance and plotted vs. drug concentration. IC50 values, the drug concentrations that reduce the mean absorbance at 570 nm to 50% of those in the untreated control wells, were calculated by the four-parameter logistic (4-PL) model. The evaluation was based on means from at least four independent experiments.

PSN-1 spheroids = test: 3D spheroid cytotoxicity, acid phosphatase (APH) assay, PSN-1; format: cell-based; settings: Homo sapiens, PSN1, 72 h, acid phosphatase (APH) test, read-out: IC50 (µM) ± S.D. PSN-1 (3D spheroids)
Description: Prompted by these encouraging results, we also screened the newly developed 1,2,4-triazine compounds against 3D spheroids of PDAC KRAS wild-type and mutant cells, to further estimate their anticancer potential in a more predictive environment. […] The PDAC cancer spheroids were treated with tested compounds for 72 h, and cell viability was assessed by means of the acid phosphatase (APH) assay (Table 3). The efficacy of gemcitabine as well as of DCA and DAP was assessed under the same experimental conditions.
Spheroid cultures were obtained by seeding 2.5 × 10^3 PSN-1 cancer cells/well in a round-bottom non-treated tissue culture 96-well plate (Greiner Bio-one, Kremsmünster, Austria) in phenol red-free RPMI-1640 medium (Sigma Chemical Co, St. Louis, MO, USA) containing 10% fetal calf serum and supplemented with 20% methylcellulose stock solution.
An APH-modified assay was used for determining cell viability in 3D spheroids, as previously described. Briefly, the pre-seeded spheroids were treated with fresh medium containing the compound to be studied at the appropriate concentration (range 2.5–200 μM). Triplicate cultures were established for each treatment. After 72 h, each well was treated with 100 μL of the assay buffer (0.1 M sodium acetate, 0.1% Triton-X-100, supplemented with ImmunoPure p-nitrophenyl phosphate; Sigma Chemical Co.) and, following 3 h of incubation, 10 μL of 1 M NaOH solution were added. The inhibition of the cell growth induced by the tested compounds was detected by measuring the absorbance of each well at 405 nm, using a Bio-Rad 680 microplate reader. The mean absorbance for each drug dose was expressed as a percentage of the control untreated well absorbance (T/C) and plotted vs. drug concentration. IC50 values, the drug concentrations that reduce the mean absorbance at 405 nm 50% of those in the untreated control wells, were calculated by the four-parameter logistic (4-PL) model. The evaluation was based on means from at least four independent experiments.

recombinant human PDK1 = target: T1, recombinant human PDK1 (Homo sapiens, UniProt Q15118); test: PDK1 ADPGlo Kinase Assay; format: biochemical; settings: for IC50: isolated PDK1 isoform, four-parameter logistic model, mean of 3 independent experiments, read-out: IC50 (µM) ± S.D. PDK1
T1 construct: purchased Abcam
Description: The ability of the tested compounds to hamper the activity of PDK1-4 isoforms was firstly evaluated by means of a chemioluminescent assay, the ADPGlo™ Kinase Assay kit (Promega Corporation, Madison, WI, USA).
The in vitro inhibitory activity of tested compounds on recombinant human PDK1-4 isoforms (Abcam, Cambridge, MA, USA) was evaluated by using the ADPGlo™ Kinase Assay kit from Promega (Promega Corporation, Madison, WI, USA) following the instructions of the manufacturer, as previously described.

[2] = system: PSN-1 cells (KRAS-mutant PDAC); test: 2D cytotoxicity, MTT assay, PSN-1; format: cell-based; settings: Homo sapiens, read-out: IC50 (µM) ± S.D. PSN-1 (2D)
Description: as §1, §2, §3, §4

recombinant human HSP90 = recombinant human HSP90 (Homo sapiens, UniProt P07900); test: HSP90 inhibition assay (Transcreener ADP kit); format: biochemical; settings: isolated HSP90; four-parameter logistic model; mean of 3 independent experiments; read-out: IC50 (µM) ± S.D. HSP90
Description: Since the ATP binding pockets in PDKs and HSP90 are similar and taking into consideration that these 1,2,4-triazine derivatives conserved a chemical scaffold resembling that of the well-known Hsp90 inhibitor Ganetespib, the most performant PDK inhibitors 4d, 4f, 4h, 5d, 5f, 5h and 5j were also screened for their ability to target HSP90.
The in vitro inhibitory activity of tested compounds on recombinant human HSP90 was assessed by The Transcreener™ ADP kit (Bellbrook Labs, Madison, WI, USA) according to the manufacturer’s protocol as previously described.

[3] = BXPC-3, 72 h exposure, MTT test, 2D culture
[4] = PSN1, 72 h exposure, MTT test, 2D culture

T1 sequence (Q15118 29-436): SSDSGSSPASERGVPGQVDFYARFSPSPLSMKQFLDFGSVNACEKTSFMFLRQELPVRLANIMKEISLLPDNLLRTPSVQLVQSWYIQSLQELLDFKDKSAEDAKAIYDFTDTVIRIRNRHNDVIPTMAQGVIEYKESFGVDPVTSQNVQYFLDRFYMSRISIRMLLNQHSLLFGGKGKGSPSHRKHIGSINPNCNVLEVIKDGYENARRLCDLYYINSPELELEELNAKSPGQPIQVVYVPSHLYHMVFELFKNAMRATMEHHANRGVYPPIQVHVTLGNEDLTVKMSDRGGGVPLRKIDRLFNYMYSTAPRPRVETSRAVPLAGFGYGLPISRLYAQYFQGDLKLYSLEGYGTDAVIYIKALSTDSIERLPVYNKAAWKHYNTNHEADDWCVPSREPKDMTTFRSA

Structure (SMILES)	IC50 (BxPC-3 spheroids) [µM]	IC50 [1, 3] [µM]	IC50 (PSN-1 spheroids) [µM]	melting point [°C]	IC50 (recombinant human PDK1) [µM]	IC50 [2, 4] [µM]	decrease in potency on PDK1 relative to 5d and 5j (recombinant human PDK1; compared with the other two examined ligands (5d, 5j)) [fold]	IC50 ([1]; BXPC-3, 72 h) [µM]	IC50 (recombinant human HSP90) [µM]	IC50 ([2]; PSN1, 72 h) [µM]
Cn1cc(-c2nnc(N)nc2-c2cn(C)c3ncccc23)c2ccccc21 [4a, 6-(1-Methyl-1H-indol-3-yl)-5-(1-methyl-1H-pyrrolo[2,3-b]pyridin-3-yl)-1,2,4-triazin-3-amine]	141.3 ± 0.1	15.7 ± 2.2	97.5 ± 2.8	268.1	0.3 ± 0.1	11.3 ± 2	–	–	–	–
Cn1cc(-c2nnc(N)nc2-c2cn(C)c3ncc(Br)cc23)c2ccccc21 [4b, 5-(5-Bromo-1-methyl-1H-pyrrolo[2,3-b]pyridin-3-yl)-6-(1-methyl-1H-indol-3-yl)-1,2,4-triazin-3-amine]	224 ± 14.8	23.5 ± 3.2	188 ± 13.8	260	0.33 ± 0.05	19.5 ± 2.9	–	–	–	–
Cn1cc(-c2nnc(N)nc2-c2cn(C)c3ncccc23)c2cc(Br)ccc21 [4c, 6-(5-Bromo-1-methyl-1H-indol-3-yl)-5-(1-methyl-1H-pyrrolo[2,3-b]pyridin-3-yl)-1,2,4-triazin-3-amine]	76.8 ± 5.1	9.5 ± 1.7	55.8 ± 3.5	176.3	0.26 ± 0.07	7.8 ± 1.5	–	–	–	–
Cn1cc(-c2nnc(N)nc2-c2cn(C)c3ncccc23)c2cc(Cl)ccc21 [4e, 6-(5-Chloro-1-methyl-1H-indol-3-yl)-5-(1-methyl-1H-pyrrolo[2,3-b]pyridin-3-yl)-1,2,4-triazin-3-amine]	160 ± 11.4	32.3 ± 8.2	59.6 ± 4.5	178	0.29 ± 0.06	26.5 ± 4.3	6	–	–	–
Cn1cc(-c2nnc(N)nc2-c2cn(C)c3ncccc23)c2cc(F)ccc21 [4g, 6-(5-Fluoro-1-methyl-1H-indol-3-yl)-5-(1-methyl-1H-pyrrolo[2,3-b]pyridin-3-yl)-1,2,4-triazin-3-amine]	71.5 ± 5.2	6.5 ± 1.1	65.5 ± 6.8	267.4	0.19 ± 0.04	4.5 ± 1.3	–	–	–	–
COc1ccc2c(c1)c(-c1nnc(N)nc1-c1cn(C)c3ncccc13)cn2C [4i, 6-(5-methoxy-1-methyl-1H-indol-3-yl)-5-(1-methyl-1H-pyrrolo[2,3-b]pyridin-3-yl)-1,2,4-triazin-3-amine]	189 ± 10.9	31.2 ± 5.5	140 ± 7.5	217	0.33 ± 0.1	26.5 ± 4	–	–	–	–
COc1ccc2c(c1)c(-c1nnc(N)nc1-c1cn(C)c3ncc(Br)cc13)cn2C [4j, 5-(5-Bromo-1-methyl-1H-pyrrolo[2,3-b]pyridin-3-yl)-6-(5-methoxy-1-methyl-1H-indol-3-yl)-1,2,4-triazin-3-amine]	160 ± 10.5	30.5 ± 3.4	103 ± 8.7	197.6	0.18 ± 0.06	27.8 ± 3.8	–	–	–	–
Cn1cc(-c2nc(N)nnc2-c2cn(C)c3ncccc23)c2ccccc21 [5a, 5-(1-Methyl-1H-indol-3-yl)-6-(1-methyl-1H-pyrrolo[2,3-b]pyridin-3-yl)-1,2,4-triazin-3-amine]	170 ± 9.4	27.2 ± 3.7	78.8 ± 8.5	235.5	0.32 ± 0.1	22.2 ± 2.7	–	–	–	–
Cn1cc(-c2nc(N)nnc2-c2cn(C)c3ncc(Br)cc23)c2ccccc21 [5b, 6-(5-Bromo-1-methyl-1H-pyrrolo[2,3-b]pyridin-3-yl)-5-(1-methyl-1H-indol-3-yl)-1,2,4-triazin-3-ylamine]	68.5 ± 2.5	9.4 ± 1.3	73.6 ± 6.8	–	0.21 ± 0.07	5.2 ± 0.9	–	–	–	–
Cn1cc(-c2nc(N)nnc2-c2cn(C)c3ncccc23)c2cc(Br)ccc21 [5c, 5-(5-bromo-1-methyl-1H-indol-3-yl)-6-(1-methyl-1H-pyrrolo[2,3-b]pyridin-3-yl)-1,2,4-triazin-3-amine]	156 ± 11.7	13.7 ± 2.9	78.4 ± 5.8	304.5	0.27 ± 0.08	9.2 ± 1.9	–	–	–	–
Cn1cc(-c2nc(N)nnc2-c2cn(C)c3ncccc23)c2cc(Cl)ccc21 [5e, 5-(5-Chloro-1-methyl-1H-indol-3-yl)-6-(1-methyl-1H-pyrrolo[2,3-b]pyridin-3-yl)-1,2,4-triazin-3-amine]	200 ± 16.3	16.5 ± 3.8	198 ± 12.4	310.3	0.32 ± 0.1	14.2 ± 3.1	–	–	–	–
Cn1cc(-c2nc(N)nnc2-c2cn(C)c3ncccc23)c2cc(F)ccc21 [5g, 5-(5-Fluoro-1-methyl-1H-indol-3-yl)-6-(1-methyl-1H-pyrrolo[2,3-b]pyridin-3-yl)-1,2,4-triazin-3-amine]	79.7 ± 11.4	19.8 ± 3.2	130 ± 11.8	281.4	0.29 ± 0.1	15.2 ± 4.6	–	–	–	–
COc1ccc2c(c1)c(-c1nc(N)nnc1-c1cn(C)c3ncccc13)cn2C [5i, 5-(5-Methoxy-1-methyl-1H-indol-3-yl)-6-(1-methyl-1H-pyrrolo[2,3-b]pyridin-3-yl)-1,2,4-triazin-3-amine]	153 ± 10.3	0.31 ± 0.07	112 ± 9.1	288.2	0.31 ± 0.07	14.9 ± 3.2	–	–	–	–
O=C(c1ccccc1)C(Cl)Cl [DAP, 2,2-dichloroacetophenone, reference compound]	78.2 ± 6.2	–	87.4 ± 8.9	–	212 ± 48	–	–	16.5 ± 0.9	698 ± 83	10.2 ± 1.6
O=C(O)C(Cl)Cl [DCA, Dichloroacetate, reference compound]	–	–	29800 ± 357	–	–	–	–	> 1000	–	> 1000
Nc1ccn([C@@H]2O[C@H](CO)[C@@H](O)C2(F)F)c(=O)n1 [Gemcitabine, gemcitabine hydrochloride, reference compound]	160 ± 5.6	0.02 ± 0.003	103 ± 6.3	–	–	0.1 ± 0.04	–	–	–	–

— publication PMC10224441, “Structural Manipulations of Marine Natural Products Inspire a New Library of 3-Amino-1,2,4-Triazine PDK Inhibitors Endowed with Antitumor Activity in Pancreatic Ductal Adenocarcinoma” (Marine Drugs, 2023)
